From patent publication US20250339426A1, “GCN2 MODULATOR FOR TREATING CANCER” (HIBERCELL, INC., priority 2022, published 2025)

Columns and labels:
[1] = tested on: HIF1α; assay: IHC of patient tumor biopsies, Phase 1a/b study; type: in vivo, human; conditions: colorectal and head and neck cancer patients, 10 mg and 20 mg QD, cycle 3 vs screening
Procedure: A first-in-human, multicenter, open-label, Phase 1a/b dose-escalation and dose-expansion study to establish the maximum tolerated dose (MTD), recommended phase II dose (RP2D), and evaluate the safety and tolerability of once daily (QD) oral dosing of HC-7366 potassium salt monohydrate in a dose-escalating fashion in subjects with advanced solid tumors was conducted. Up to 36 subjects were enrolled into the Phase 1a dose-escalation part of the study. Approximately 50% of all subjects enrolled in this study were subjects with squamous cell carcinoma of the head and neck (SCCHN), colorectal cancer (CRC), non-small cell lung cancer (NSCLC), and transitional cell carcinoma of the bladder (TCC). […] The study was conducted in the United States at approximately 3 to 5 sites. This Phase 1a/b study followed a traditional 3+3 design. The starting dose level was 10 mg QD, escalating to 20, 40, 75, 125, and 150 mg QD as safety allowed. All doses were administered in the fasting state with water at least 1 hour before food or at least 2 hours after food. […]
Tumor biopsies collected from colorectal cancer and head and neck cancer study patients at the time of screening and at cycle 3 were analyzed for HIF1α expression by IHC. […]

[2] = tested on: MOLM-16 cells; assay: CTG viability assay, MOLM-16 sgControl and sgGCN2 cells; type: cell-based, human; conditions: 24 or 48 hr
Procedure: MOLM-16 cells were obtained from DSMZ (#ACC 555) and were cultured in RPMI 1640 (Gibco, #11875119) with 20% FBS (Invitrogen, #10099141C) at 37° C. and 5% CO2. MOLM-16 GCN2 CRISPR knockout cells (sgGCN2) were generated and compared to control cells (sgControl). For viability experiments, cells were plated in 384-well cell culture plates and incubated overnight. Compounds were diluted in 8 concentrations by 3-fold dilution in 384pp-plate using TECAN EVO200 to a final concentration ranging from […]. The plates were incubated for 24 or 48 hr and viability was assessed by adding CellTiter-Glo® 2.0 Assay according to the manufacturer's protocol (Promega, G9243) to each well. The plates were then incubated at RT for 30 min. The luminescent signals were read by Envision (PerkinElmer) plate reader and analyzed by Prism.

[3] = tested on: KG-1 (human AML cancer cells); assay: In vivo tumor growth inhibition, KG-1 xenograft; parameters: species or system NOD SCID mice; conditions: 1 and 3 mg/kg twice daily oral
Procedure: KG-1 (human AML cancer cells): Female 6-8 weeks old NOD SCID mice were inoculated subcutaneously on the right flank with KG1 tumor cells (5×10^6) in RPMI 1640 without serum for tumor development. The treatments were started when the mean tumor size reached approximately 194 mm^3 at Day 20 after cell inoculation and continued until end of study by twice daily oral gavage dosing of HC-7366 at listed doses (vehicle, 0.3 mg/kg HC-7366, 1 mg/kg HC-7366, 3 mg/kg HC-7366, 10 mg/kg HC-7366, or 30 mg/kg HC-7366, FIG. 17).
(§1) [formula] • 2.2.2 Tumor Measurements: The measurement of tumor size was conducted three times weekly with a caliper and recorded. The tumor volume (mm^3) was estimated using the formula: TV=a×b^2/2, where “a” and “b” is long and short diameters of a tumor, respectively. Tumor volume was calculated using the formula [tumor volume (mm^3)=π/6×length×width^2).
(§2) Regression was calculated using the formula=100×ΔT/T initial, if ΔT<0. Animals with 0 mm^3 tumor volume (no measurable tumor) for three consecutive measurements were considered as complete responders and animals with 50% tumor regressions were partial responders.

[4] = tested on: FaDu (human head and neck cancer cells); assay: In vivo tumor growth inhibition, FaDu xenograft; parameters: species or system BALB/c nude mice
Procedure: FaDu (human head and neck cancer cells): Female 6-8 weeks old BALB/c nude mice were inoculated subcutaneously on the right flank with FaDu tumor cells (5×10^6) in 0.1 ml of EMEM medium without serum for tumor development. The treatments were started when the mean tumor size reached approximately 194 mm^3 at Day 21 post inoculation and continued until end of study by twice daily oral gavage dosing of HC-7366 at listed doses (vehicle, 0.3 mg/kg HC-7366, 1 mg/kg HC-7366, 3 mg/kg HC-7366, 10 mg/kg HC-7366, or 30 mg/kg HC-7366, FIG. 11-13).
as §1, §2

[5] = tested on: MFE280 (human endometrial cancer cells); assay: In vivo tumor growth inhibition, MFE280 xenograft; parameters: species or system Athymic Nude-Foxn1nu mice

## CNC(=O)c1ncn2cc(-c3c(F)ccc(NS(=O)(=O)c4cc(Cl)cnc4OC)c3F)ncc12 [HC-7366, 6-(3-((5-chloro-2-methoxypyridine)-3-sulfonamido)-2,6-difluorophenyl)-N-methylimidazo[1,5-a]pyrazine-1-carboxamide]
[1]
  HIF1α expression in tumor biopsies: Profound inhibition
[2]; GCN2 CRISPR knockout cells
  viability response: reversed
[2]; GCN2 wild-type (sgControl), lower concentrations, U-shaped manner
  viability: potently reduced viability
[3]
  effect on tumor growth: tumor stasis
[4]; 1 mg/kg twice daily oral
  tumor regression: 33%
[4]; all doses
  TGI: significant TGI
[5]; HC-7366 0.5 mg/kg twice daily oral
  tumor growth inhibition: 45%
[5]; HC-7366 2 mg/kg twice daily oral
  tumor growth inhibition: 53%
